Where “and” joins values, the source holds several entries; their conditions need not be identical. Equal entries are not always repeated. Where two headings read alike, the source gives them in different places.
Assays:
HFD-fed mice = assay: Oral GTT in normal-chow and high-fat diet (HFD)-fed mice; assay type: in vivo, mouse; conditions: for Blood glucose / Plasma insulin: Glucose tolerance test, HFD, 30 mg/kg, individual animals
Method: Fig. 8 Acute and chronic DS20060511 treatment improves glucose intolerance in HFD-fed and db/db mice. a Blood glucose and plasma insulin levels during an oral GTT in normal-chow (NC)- and high-fat diet (HFD)-fed mice (n = 5). Vehicle or DS20060511 (30 mg kg^−1) was given orally 15 min before the oral glucose administration (1.5 g kg^−1). Values shown are means ± SEM. *P < 0.05, **P < 0.01, ***P < 0.001 vs. the HFD vehicle by the t-test. b Effects of 10 μM DS20060511 and 100 nM insulin on 2-DG uptake in muscles isolated from NC-fed (n = 6) and HFD-fed (n = 5) mice. Values shown are means ± SEM. **P < 0.01 by one-way ANOVA followed by Tukey’s test. c, d Changes in the blood glucose levels and AUC on day 1 and day 28 during refeeding (n = 6) in db/db mice treated chronically with DS20060511 (10 mg kg^−1 day^−1). Values shown are means ± SEM. *P < 0.05, **P < 0.01, ***P < 0.001 vs. vehicle by the t-test. e Change of the HbA1c levels in the db/db (n = 6) mice at 4 weeks. Values shown are means ± SEM. *P < 0.05 vs. vehicle by the t-test.
C57BL/6 and db/db mice were purchased from CLEA Japan, Tokyo, Japan. GLUT4- knockout mice were generated at RIKEN BioResource Center, Tsukuba, Japan, according to a previously described method. eNOS-knockout mice were kindly provided by Dr. Masato Tsutsui[41],[42]. The mice were group-housed under controlled illumination (12:12 h light-dark cycle) and temperature (23 ± 2 °C) conditions and given free access to normal chow and water, unless otherwise specified. The HFD-fed obese mice were prepared by feeding C57BL/6 mice a HFD for at least 8 weeks from 6 weeks of age. […] Male mice were used for all the experiments in this study. The animal care and experimental procedures used in the study were approved by The University of Tokyo Animal Care Committee (Approval number: 27-3), and the study was carried out in accordance with the Animal Experimentation Guidelines of Daiichi Sankyo Co., Ltd (Approved number: 20000411).
Mice that had been denied access to food overnight received the indicated oral dose of DS20060511 or vehicle 15 min prior to the glucose load (1.5 g kg^−1, except for eNOS-knockout mice, which received 3.0 g kg^−1). Then, after the oral glucose load, the blood glucose levels were measured using Glutest Every in samples obtained from the tail vein at the indicated timepoints. Plasma insulin concentrations were also measured with an ELISA kit (Morinaga Institute of Biological Science, Yokohama, Japan) in blood samples collected from the tail vein at the indicated timepoints.

[1] = Pharmacokinetics: plasma concentration after oral administration; assay type: in vivo, mouse; conditions: for concentration at 0.5 hr / concentration at 1.25 hr / concentration at 2 hr / concentration at 4 hr / concentration at 6 hr: plasma, individual mice; for concentration at 0.5 hr: read-out: Conc. (µM) 0.5 hr; for concentration at 1.25 hr: read-out: Conc. (µM) 1.25 hr; for concentration at 2 hr: read-out: Conc. (µM) 2 hr; for concentration at 4 hr: read-out: Conc. (µM) 4 hr; for concentration at 6 hr: read-out: Conc. (µM) 6 hr; for maximal plasma concentration: at 30 min
Method: C57BL/6 mice that had been denied access to food overnight received the indicated oral dose of DS20060511, and blood samples were collected from the tail vein at the indicated timepoints. Plasma samples for quantitation of DS20060511 were prepared by centrifugation. Another group of mice received oral administration DS20060511 (30 mg kg^−1) and euthanized 75 min later. The soleus and gastrocnemius muscles, heart, and inguinal WAT were removed and homogenized in water (5 vol.) for quantitation of the drug concentrations. Plasma samples and tissue homogenates were analyzed by LC-MS/MS (Nexera MP System, SHIMADZU, Kyoto, Japan; API4000 System, SCIEX, Framingham, MA). The tissue concentrations of the compound were calculated by assuming the volume of 1 g of tissue is 1 mL. Evaluation of the metabolic stability of the compound to mouse and human cytochrome P450 (CYP) was conducted as follows. The test compound (1 μM) was incubated with pooled liver microsomes (0.1 mg mL^−1) in sodium phosphate buffer (100 mM, pH 7.4) at 37 °C with an NADPH generating system: β-nicotinamide adenine dinucleotide phosphate (β-NADP) 1 mM, D-glucose 6-phosphate (G-6-P) 10 mM, glucose 6-phosphate dehydrogenase (G-6-PDH) 1 U mL^−1, and magnesium chloride 3.3 mM. After 30 min incubation, the reaction was terminated by addition of acetonitrile and samples were analyzed by LC-MS/MS. The results were expressed as the amount of compound remaining (expressed as a percentage), based on the ratio of the relative area to that in the control (without reaction).

[2] = C57BL/6, mouse, po, 1 mg/kg, 1 mg/kg oral
[3] = C57BL/6, mouse, po, 30 mg/kg, 30 mg/kg oral

Compound: COc1ccc2c(C)c(C(=O)O)ccc2c1C1C2=C(CC(C)(C)CC2=O)OC2=C1C(=O)CC(C)(C)C2 [DS20060511]
- Blood glucose (HFD-fed mice; 0 min): 194 mg/dL and 178 mg/dL and 193 mg/dL and 108 mg/dL and 185 mg/dL
- Plasma insulin (HFD-fed mice; 0 min): 0.79 ng/mL and 1.09 ng/mL and 0.57 ng/mL and 0.32 ng/mL and 0.69 ng/mL
- Blood glucose (HFD-fed mice; 15 min): 331 mg/dL and 278 mg/dL and 279 mg/dL and 180 mg/dL and 270 mg/dL
- Plasma insulin (HFD-fed mice; 15 min): 3.22 ng/mL and 2.72 ng/mL and 2.47 ng/mL and 1.43 ng/mL and 1.91 ng/mL
- Blood glucose (HFD-fed mice; 30 min): 200 mg/dL and 213 mg/dL and 232 mg/dL and 161 mg/dL
- Plasma insulin (HFD-fed mice; 30 min): 1.03 ng/mL and 1.28 ng/mL and 0.97 ng/mL and 0.53 ng/mL and 0.78 ng/mL
- Blood glucose (HFD-fed mice; 60 min): 209 mg/dL and 214 mg/dL and 235 mg/dL and 141 mg/dL and 229 mg/dL
- Blood glucose (HFD-fed mice; 90 min): 199 mg/dL and 201 mg/dL and 204 mg/dL and 164 mg/dL and 209 mg/dL
- Blood glucose (HFD-fed mice; 120 min): 188 mg/dL and 154 mg/dL and 227 mg/dL and 155 mg/dL and 189 mg/dL
- Blood glucose (HFD-fed mice; -15 min): 212 mg/dL and 167 mg/dL and 176 mg/dL and 120 mg/dL and 197 mg/dL
- Plasma insulin (HFD-fed mice; -15 min): 1.31 ng/mL and 2.09 ng/mL and 1.16 ng/mL and 0.67 ng/mL
- blood glucose levels during oral GTT (in words) (HFD-fed mice; HFD-fed mice, 30 mg kg−1 po): significantly decreased the blood glucose levels
- plasma insulin levels during oral GTT (in words) (HFD-fed mice; HFD-fed mice, 30 mg kg−1 po): rather decreased
- concentration at 0.5 hr [1, 2]: 0.6 µM
- concentration at 1.25 hr [1, 2]: 0.23 µM
- concentration at 2 hr [1, 2]: 0 µM
- concentration at 4 hr [1, 2]: 0 µM
- concentration at 6 hr [1, 2]: 0 µM
- concentration at 4 hr ([1]; C57BL/6, mouse, po, 10 mg/kg, 10 mg/kg oral): 1.2 µM
- concentration at 0.5 hr [1, 3]: 77.7 µM
- concentration at 1.25 hr [1, 3]: 49.6 µM
- concentration at 2 hr [1, 3]: 35 µM
- maximal plasma concentration ([1]; oral 1 mg kg−1, normal mice): 0.6 µM
- maximal plasma concentration ([1]; oral 10 mg kg−1): 16.5 µM
- maximal plasma concentration ([1]; oral 30 mg kg−1): 71.4 µM
- concentration at 0.5 hr ([1]; 1 mg/kg oral, 1 mg/kg): 0.5 µM and 0.44 µM and 0.65 µM
- concentration at 1.25 hr ([1]; 1 mg/kg oral, 1 mg/kg): 0.268 µM and 0.4 µM and 0.221 µM
- concentration at 0.5 hr ([1]; 10 mg/kg oral, 10 mg/kg): 17.9 µM and 8.3 µM and 19.0 µM and 20.9 µM
- concentration at 1.25 hr ([1]; 10 mg/kg oral, 10 mg/kg): 3.9 µM and 5.3 µM and 9.9 µM and 11.4 µM
- concentration at 2 hr ([1]; 10 mg/kg oral, 10 mg/kg): 7.0 µM and 2.1 µM and 5.0 µM and 6.6 µM
- concentration at 4 hr ([1]; 10 mg/kg oral, 10 mg/kg): 0.6 µM and 0.8 µM and 0.7 µM
- concentration at 6 hr ([1]; 10 mg/kg oral, 10 mg/kg): 0.285 µM and 0.0 µM and 0.323 µM
- concentration at 0.5 hr ([1]; 30 mg/kg oral, 30 mg/kg): 74.9 µM and 69.3 µM and 63.8 µM
- concentration at 1.25 hr ([1]; 30 mg/kg oral, 30 mg/kg): 41.0 µM and 53.8 µM
- concentration at 2 hr ([1]; 30 mg/kg oral, 30 mg/kg): 28.7 µM and 34.5 µM and 44.1 µM
- concentration at 4 hr ([1]; 30 mg/kg oral, 30 mg/kg): 6.7 µM and 5.3 µM and 8.2 µM and 10.7 µM
- concentration at 6 hr ([1]; 30 mg/kg oral, 30 mg/kg): 1.9 µM and 1.8 µM and 1.0 µM and 3.0 µM

From article PMC8379256, “A xanthene derivative, DS20060511, attenuates glucose intolerance by inducing skeletal muscle-specific GLUT4 translocation in mice” (Communications Biology, 2021)
